What was measured:
NF-κB = experiment: Transcriptional activity of NF-κB (PBIIX-Luc reporter) in BV-2 microglial cells; type: cell-based, mouse; conditions: co-incubated with NaPB 6 h
Method: Transcriptional activity of NF-κB: Transcriptional activity of NF-κB was assayed. […] After 24 h of transfection, […], and firefly and Renilla luciferase activities were recorded in a TD-20/20 Luminometer (Turner Designs, Sunnyvale, Calif.) by analyzing total cell extract according to standard instructions provided in the Dual Luciferase Kit (Promega), Relative luciferase activity of cell extracts was typically represented as (firefly luciferase value/Renilta luciferase value)×10^−3.

BV-2 microglial cells = experiment: Superoxide production in microglial cells; type: cell-based, mouse; conditions: co-incubated with NaPB 6 h, then LPS 10 min
From the text: Results represent three independent experiments.
Superoxide measurements: Superoxide production was detected by LumiMax™ Superoxide Anion Detection Kit (Stratagene) as described by us (30).

cholesterol = experiment: Serum cholesterol in male C57/BL6 mice; type: in vivo, mouse; conditions: 1 mg/kg body wt/d via gavage, 7 d
Method: Mice (6-8 wk old) were treated with NaPB (200 mg/kg body wt/d) and pravastatin (1 mg/kg body wt/d) separately via gavage for 7 d followed by quantification of cholesterol in serum using a simple fluorometric method.
Intermediates of the mevalonate pathway play a role in the expression of iNOS and proinflammatory cytokines in glial cells. End product of the mevalonate pathway is cholesterol and therefore, we investigated if NaPB had any effect on the level of cholesterol in vivo in mice.
Assay of cholesterol in serum: Total cholesterol was quantified irr serum by using an Amplex Red Cholesterol Assay kit from Invitrogen. Briefly, cholesterol was oxidized by cholesterol oxidase to yield H2O2, which then reacted with 10-acetyl-3,7 dihydroxyphenoxazine (Amplex Red). In the presence of horseradish peroxidase (HRP), this Amplex Red:H2O2 complex produced highly fluorescent resorufin, which was detected by fluorometry.

primary mouse microglia = experiment: LPS-induced NO (nitrite) production in primary mouse microglia; type: cell-based; conditions: other HDAC inhibitors, different concentrations, 6 h preincubation, LPS 24 h
Method: Primary mouse microglia were treated with different concentrations of NaPB for 6 h followed by stimulation with LPS under serum-free condition. After 24 h of stimulation, concentrations of nitrite were measured in supernatants (A) and the level of iNOS protein was monitored in cells by Western blot (B). […] After 5 h of stimulation, the expression of iNOS mRNA was monitored by semi-quantitative RT-PCR (C). Cells preinctibated with different concentration of trichostatin A (TSA) and sodium butyrate (NaBu) for 6 h were stimulated with LPS for 24 h under serum-free condition followed by monitoring the level of nitrite in supernatants (p). […] Primary human astroglia isolated from fetal brain tissues were treated with different concentrations of NaPB for 6 h followed by stimulation with IL-1β under serum-free condition. After 48 h of stimulation, concentrations of nitrite (E) were measured in supernatants. Human astroglia plated at 70-80% confluence in 12-well plates were co-transfected with 0.25 μg of phiNOS(7.2)Luc and 12.5 ng of pRL-TK using the Lipofectamine-Plus (Invitrogen). Twenty-four h after transfection, cells received NaPB. After 6 h of incubation, cells were stimulated with IL-1β (20 ng/ml) for 12 h. Firefly (ff-Luc) and Renilla (r-Luc) luciferase activities were obtained by analyzing the total cell extract (F).
Activated microglia and astroglia are known to produce excessive amount of NO having the potential of damaging neurons in neurodegenerative disorders. We investigated the effect of NaPB on the expression of iNOS in microglia. LPS is a prototype inducer of various proinflammatory molecules in different cell types including mouse microglia. Therefore, primary mouse microglia preincubated with different doses of NaPB for 6 h were stimulated with LPS under serum-free condition. […] We used trichostatin A (TSA) and sodium butyrate (NaBu) for this purpose.
Isolation of Mouse Microglia: Microglia were isolated from mixed glial cultures. Briefly, on day 7-9, the mixed glial cultures were washed three times with Dulbecco's modified Eagle's medium/F-12 and subjected to shaking at 240 rpm for 2 h at 37° C. on a rotary shaker. The floating cells were washed and seeded on to plastic tissue culture flasks and incubated at 37° C. for 1 h. The attached cells were seeded onto new plates for further studies. […] Mouse BV-2 microglial cells (kind gift from Virginia Bocchini of Universityof Perugia) were also maintained and induced as indicated above.

SMILES | effect on NaPB-mediated inhibition of NF-κB activation (NF-κB) | effect on NaPB-mediated inhibition of superoxide production (BV-2 microglial cells) | reduction of the level of cholesterol in serum (cholesterol) [%] | effect on LPS-induced production of NO (primary mouse microglia)
CC(C)=CCC/C(C)=C/CC/C(C)=C/CC/C(C)=C/COP(=O)(O)OP(=O)(O)O [GGPP, geranylgeranyl pyrophosphate] | abrogated the inhibitory effect of NaPB | abolished the inhibitory effect of NaPB | – | –
CC[C@H](C)C(=O)O[C@H]1C[C@H](O)C=C2C=C[C@H](C)[C@H](CC[C@@H](O)C[C@@H](O)CC(=O)O)[C@H]21 [pravastatin] | – | – | ~29 | –
CC(O)(CCO)CC(=O)O (centres unmarked) [mevalonate] | abrogated the inhibitory effect of NaPB | abolished the inhibitory effect of NaPB | – | –
CC(C)(CO[P@@](=O)(O)O[P@@](=O)(O)OC[C@H]1O[C@@H](n2cnc3c(N)ncnc32)[C@H](O)[C@@H]1OP(=O)(O)O)[C@@H](O)C(=O)NCCC(=O)NCCSC(=O)C[C@@](C)(O)CC(=O)O [HMG-CoA] | abrogated the inhibitory effect of NaPB | abolished the inhibitory effect of NaPB | – | –
CC(C)CCC[C@@H](C)[C@H]1CC[C@H]2[C@@H]3CC=C4C[C@@H](O)CC[C@]4(C)[C@H]3CC[C@]12C [cholesterol] | had no effect | had no effect | – | –
COC1=C(OC)C(=O)C(C/C=C(\C)CC/C=C(\C)CC/C=C(\C)CC/C=C(\C)CC/C=C(\C)CC/C=C(\C)CC/C=C(\C)CC/C=C(\C)CC/C=C(\C)CCC=C(C)C)=C(C)C1=O [coenzyme Q] | had no effect | had no effect | – | –
CC(/C=C/C(=O)NO)=C\[C@@H](C)C(=O)c1ccc(N(C)C)cc1 [TSA, trichostatin A] | – | – | – | attenuated
CCCC(=O)[O-].[Na+] [NaBu, sodium butyrate] | – | – | – | stimulated
CC(C)=CCC/C(C)=C/CC/C(C)=C/COP(=O)(O)OP(=O)(O)O [FPP, farnesyl pyrophosphate] | abrogated the inhibitory effect of NaPB | – | – | –

Reference: patent US20130303564A1, “METHOD FOR TREATING A NEURODEGENERATIVE DISORDER” (RUSH UNIVERSITY MEDICAL CENTER, priority 2012, published 2013)
